For data set [1], the target named is T1, beta-3 adrenoceptor (Homo sapiens, UniProt P13945).
T1 construct: from tissue; host or cells: human urinary bladder muscle strips
Put plainly: Desensitization and resensitization in isolated human bladder tissue strips (EFS responses). Type of data set: cell-based. The arrangement: dose or concentration left out as unconfirmed. Here is the method:
Beta-3 adrenoceptor desensitization and resensitization were examined in the human bladder. Similar to the protocol used in the rat bladder, isolated human bladder tissue strips were studied for EFS responses. Optimal EFS parameters were determined to be: 30 volts, square pulse of 0.1 ms, train of 5 seconds every 60 seconds, 8-10 Hz. […] Following compound incubation, the tissues were washed with PSS for a period of 1 or 3 hr, with washes approximately every 15 min, to remove the drug. At the end of the final wash period the tissues were stimulated with EFS, and left to equilibrate for at least 30 min. A concentration-response curve was then performed in each tissue.

Another data set in a line: Solubility of solabegron. The data set is classed as physicochemical.
In data set [2] the target is T2, beta-3 adrenoceptor (Rattus norvegicus, UniProt P26255).
T2 construct: The bladder longitudinal smooth muscle, with the urothelium still attached were mounted in 25 mL organ baths; from tissue; host or cells: rat urinary bladder smooth muscle strips (Male CD rats)
Put plainly: Receptor desensitization/washout: CCRC after incubation with EC90 concentration and PSS washout, rat bladder strips. Type of data set: cell-based. The protocol: (§1) Macroscopically normal bladders obtained from Male CD rats (220-250 g) were used. […] Each bladder was cleaned free of surrounding connective tissue and halved longitudinally. The bladder longitudinal smooth muscle, with the urothelium still attached were mounted in 25 mL organ baths containing physiological saline solution (PSS) (composition: 119.0 mM NaCl, 4.7 mM KCl, 1.2 mM MgSO4, 24.9 mM NaHCO3, 1.2 mM KH2PO4, 2.5 mM CaCl2 and 11.1 mM glucose) supplemented with 1 μM prazosin (α1-adrenoceptor antagonist) and 30 nM ICI118551 (β2-adrenoceptor antagonist), aerated with 95% O2/5% CO2 gas mix, warmed and maintained at approximately 37° C. throughout the experiment. Changes in force production were recorded using transducers. After mounting, the bladder halves were allowed to equilibrate for at least 30 min before they were set to a stable tension of approximately 1.0 g. The tissue was then allowed to equilibrate over at least a 60 min period with washes every 15 min.
In initial experiments the parameters for the EFS were assessed by performing a frequency curve to determine a frequency that would give a response that was approximately 80% of the response seen to 80 mM KCl. Optimal EFS parameters were determined to be: 30 Volts, square pulse of 0.1 ms, train of 4 seconds every 120 seconds, 15 Hz. This frequency was then used to stimulate the tissue for all subsequent experiments. The viability of bladder strips was tested by stimulating the tissue with EFS for minimum of ten minutes.
Following compound incubation, the tissues were washed with PSS for a period of 1, 3 or 6 hr, with washes approximately every 15 min, to remove the drug. At the end of the final wash period the tissues were stimulated with EFS, and left to equilibrate for at least 30 min. A CCRC was then performed in each tissue. Tissue responses were calculated as the mean (SEM) and expressed as percentage of EFS induced tone.
Tissues were incubated with the EC90 concentration of the test compounds for one hr followed by one hr, three hr or six hr of washing with PSS. […] This EFS-induced potentiation of bladder contraction from baseline was not observed with solabegron. […] Effect of the washout period following a […] incubation with test compound.
In the next series of experiments, tissues were incubated with the EC90 concentration of the test compounds for three hr followed by either one hr, three hr or six hr of washing with PSS.

Another data set relates to overactive bladder. The following applies: women with moderate to severe OAB; cited from earlier work.
Data set [3] addresses T2, beta-3 adrenoceptor. Put plainly: EC90 determination: inhibition of EFS-induced contraction in rat isolated bladder (pilot CCRC). Type of data set: cell-based. The note with it: pilot concentration response curves, read-out: EC90 concentration to inhibit EFS-induced contraction. Here is the method:
as §1, with “After mounting, the bladder halves were allowed to equilibrate for at least 30 min before they were set to a stable tension of approximately 1.0 g. The tissue was then allowed to equilibrate over at least a 60 min period with washes every 15 min.” left out
In initial experiments the parameters for the EFS were assessed by performing a frequency curve to determine a frequency that would give a response that was approximately 80% of the response seen to 80 mM KCl. Optimal EFS parameters were determined to be: 30 Volts, square pulse of 0.1 ms, train of 4 seconds every 120 seconds, 15 Hz. […]
Pilot studies to determine EC90 concentrations of the test compounds were performed. […] From the data obtained in these experiments, EC90 concentrations of the test compounds were determined for use in subsequent experiments. […]

[4] abbreviates: three hr incubation with EC90, one hr of washing.

T2 sequence (P26255 whole entry): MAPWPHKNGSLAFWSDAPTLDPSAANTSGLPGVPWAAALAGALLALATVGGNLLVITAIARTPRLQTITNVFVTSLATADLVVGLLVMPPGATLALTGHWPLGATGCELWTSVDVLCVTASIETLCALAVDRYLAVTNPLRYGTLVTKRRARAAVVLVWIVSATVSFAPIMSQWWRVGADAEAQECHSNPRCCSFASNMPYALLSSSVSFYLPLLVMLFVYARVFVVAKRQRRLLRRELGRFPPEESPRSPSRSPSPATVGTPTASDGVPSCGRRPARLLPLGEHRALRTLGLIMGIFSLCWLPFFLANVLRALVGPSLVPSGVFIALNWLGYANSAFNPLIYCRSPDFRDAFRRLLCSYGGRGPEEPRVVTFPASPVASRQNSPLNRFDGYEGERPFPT
T1 sequence (P13945 whole entry): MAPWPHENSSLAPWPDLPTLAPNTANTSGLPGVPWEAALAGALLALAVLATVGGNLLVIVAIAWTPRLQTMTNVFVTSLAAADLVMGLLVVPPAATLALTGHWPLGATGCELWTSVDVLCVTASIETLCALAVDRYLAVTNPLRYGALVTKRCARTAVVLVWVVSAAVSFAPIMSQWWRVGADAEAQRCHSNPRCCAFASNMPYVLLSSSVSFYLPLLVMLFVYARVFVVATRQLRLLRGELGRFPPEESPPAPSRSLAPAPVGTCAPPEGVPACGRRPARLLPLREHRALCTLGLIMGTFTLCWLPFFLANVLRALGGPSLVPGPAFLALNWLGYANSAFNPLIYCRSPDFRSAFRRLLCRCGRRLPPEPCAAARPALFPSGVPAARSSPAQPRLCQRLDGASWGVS

As to `O=C(O)c1cccc(-c2cccc(NCCNC[C@H](O)c3cccc(Cl)c3)c2)c1` [Solabegron, 3′-[(2-{[(2R)-2-(3-chlorophenyl)-2-hydroxyethyl]amino}ethyl)amino]biphenyl-3-carboxylic acid], on beta-3 adrenoceptor [1], the “inhibition of EFS-induced bladder smooth muscle contraction” value is recorded as “concentration-dependent inhibition”. In addition, the solubility entry in the data set “Solubility of solabegron” is “pH dependent and low solubility”. Also, the “response (reduction of EFS-induced tone) after pre-exposure” value on beta-3 adrenoceptor [2] (one hr incubation with EC90, one hr of washing with PSS, vs vehicle incubation) is “significantly attenuated”; on beta-3 adrenoceptor [2] (one hr incubation with EC90, three hr of washing, responses to higher concentrations), “significantly attenuated”; at beta-3 adrenoceptor [2] (setting [4]) it was “significantly attenuated”; at beta-3 adrenoceptor [2] (three hr incubation with EC90, three hr of washing, responses to the highest concentrations), “significantly attenuated”. Moreover, the “safety and tolerability, adverse events as compared to placebo” value in the data set with overactive bladder is “safe, well-tolerated, and does not demonstrate significant differences in adverse events as compared to placebo”. Besides, the “symptoms of overactive bladder” value in the data set with overactive bladder is “significantly reduce the symptoms of overactive bladder”.

For `C[C@H](Cc1ccc2c(c1)OC(C(=O)[O-])(C(=O)[O-])O2)NC[C@H](O)c1cccc(Cl)c1.[Na+].[Na+]` [CL-316,243, reference compound], the “response (reduction of EFS-induced tone) after pre-exposure” value at beta-3 adrenoceptor [2] (setting [4]) is recorded as “significantly attenuated”. The EC90 at beta-3 adrenoceptor [3] was found to be 42 nM.

Values taken from patent US20170348263A1, “COMPOSITIONS AND METHODS OF USING MODIFIED RELEASE SOLABEGRON FOR LOWER URINARY TRACT SYMPTOMS” (VELICEPT THERAPEUTICS, INC., priority 2016, published 2017).
